Laboratory results published in ChEMBL document CHEMBL1123567, “2-Oxo-1,8-naphthyridine-3-carboxylic acid derivatives with potent gastric antisecretory properties” (1987).

How the values were obtained:
Rattus norvegicus [1] = assay: Antisecretory activity at 32 mg/kg dose administered intraduodenally in the pylorus-ligated rat; format: functional; settings: route intraduodenal
Canis familiaris [2] = assay: Antisecretory activity (total acid output) at 4 mg/kg dose administered (po) in Gastric pouch dog was determined by dose related inhibition of food stimulated gastric acid secretion; format: functional, Canis lupus familiaris, Stomach; parameters: scale not given: the % may be the effect or the level left
Rattus norvegicus [3] = assay: Antisecretory activity (total acid output) at 4 mg/kg dose administered intraduodenally in the pylorus-ligated rat; format: functional; settings: route intraduodenal
Rattus norvegicus [4] = assay: Antisecretory activity (total acid output) at 8 mg/kg dose administered intraduodenally in the pylorus-ligated rat; format: functional; settings: route intraduodenal
Rattus norvegicus [5] = assay: Antisecretory activity (total acid output) at 16 mg/kg dose administered intraduodenally in the pylorus-ligated rat; format: functional; settings: route intraduodenal
Canis familiaris [6] = assay: Antisecretory activity (total acid output) at 2 mg/kg dose administered (po) in Gastric pouch dog was determined by dose related inhibition of food stimulated gastric acid secretion; format: functional, Canis lupus familiaris, Stomach; parameters: scale not given: the % may be the effect or the level left
Rattus norvegicus [7] = assay: Antisecretory activity (total acid output) at 2 mg/kg dose administered intraduodenally in the pylorus-ligated rat; format: functional; settings: route intraduodenal
Canis familiaris [8] = assay: Antisecretory activity (total acid output) at 16 mg/kg dose administered (po) in Gastric pouch dog was determined by dose related inhibition of food stimulated gastric acid secretion; format: functional, Canis lupus familiaris, Stomach; parameters: scale not given: the % may be the effect or the level left
Canis familiaris [9] = assay: Antisecretory activity (total acid output) at 8 mg/kg dose administered (po) in Gastric pouch dog was determined by dose related inhibition of food stimulated gastric acid secretion; format: functional, Canis lupus familiaris, Stomach; parameters: scale not given: the % may be the effect or the level left
Rattus norvegicus [10] = assay: Antisecretory activity (total acid output) at 0.5 mg/kg dose administered intraduodenally in the pylorus-ligated rat; format: functional; settings: route intraduodenal

SMILES | Control (Rattus norvegicus [1]) [%] | further results
CCn1c(=O)c(C(=O)NN)c(N)c2cccnc21 | 29 | –
CCn1c(=O)c(C(N)=O)c(N)c2ccc(C)nc21 | 55 | –
CCn1c(=O)c(C(=O)O)c(N)c2cc(NC(C)=O)cnc21 | 82 | –
CCCn1c(=O)c(C(=O)OCC)c(N)c2cccnc21 | 30 | –
CCOC(=O)c1c(Cl)c2ccc(C)nc2n(CC)c1=O | 66 | –
CCOC(=O)c1c(O)c2cccnc2n(CC)c1=O | 63 | –
CCOC(=O)c1c(N2CCCC2)c2cccnc2n(C)c1=O | 51 | –
CCOC(=O)c1c(N)c2cccnc2n(CC(C)C)c1=O | 28 | –
CCn1c(=O)c(C(=O)O)c(N)c2cccnc21 | 37 | –
CCn1c(=O)c(C(N)=O)c(N)c2cccnc21 | 19 | –
CCOC(=O)c1c(N)c2cccnc2n(C2CCCCC2)c1=O | 48 | –
CCOC(=O)c1c(N2CCNCC2)c2ccc(C)nc2n(CC)c1=O | 10 | –
C=CCn1c(=O)c(C(=O)O)c(NC(=O)CCl)c2cccnc21 | 63 | –
CCOC(=O)c1c(N2CCN(C)CC2)c2ccc(C)nc2n(CC)c1=O | 7.5 | Control (Canis familiaris [2]): 40%; Control (Rattus norvegicus [3]): 66%; Control (Rattus norvegicus [4]): 45%; Control (Rattus norvegicus [5]): 28%; Control (Canis familiaris [6]): 95%; Control (Rattus norvegicus [7]): 85%
CCOC(=O)c1c(O)nc2nc(C)ccc2c1N1CCN(C)CC1 | 34 | –
CCOC(=O)c1c(NCCCN(C)C)c2ccc(C)nc2n(CC)c1=O | 77 | –
CCNc1c(C(=O)OCC)c(=O)n(CC)c2nc(C)ccc12 | 36 | –
CCn1c(=O)c(C#N)c(N)c2ccc(C)nc21 | 62 | –
CCOC(=O)c1c(N)c2ccc(C)nc2n(CCO)c1=O | 74 | –

SMILES | Control (Rattus norvegicus [1]) [%] | further results
CCOC(=O)c1c(N(C(C)=O)C(C)=O)c2cccnc2n(CC)c1=O | 59 | –
CCN(CC)CCNC(=O)c1c(N)c2cccnc2n(CC)c1=O | 56 | –
CCOC(=O)c1c(N2CCCC2)c2ccc(C)nc2n(CC)c1=O | 29 | –
CCOC(=O)c1c(N(C)CCO)c2ccc(C)nc2n(CC)c1=O | 59 | –
CCn1c(=O)c(C(=O)O)c(N2CCN(C)CC2)c2ccc(C)nc21 | 89 | –
CCC(C)OC(=O)c1c(N)c2cccnc2n(CC)c1=O (stereo unspecified) | 42 | –
CCN(CC)CCOC(=O)c1c(N)c2cccnc2n(CC)c1=O | 40 | –
CCOC(=O)c1c(NC(C)=O)c2cccnc2n(CC)c1=O | 67 | –
CCOC(=O)c1c(N2CCN(C(=O)OCC)CC2)c2ccc(C)nc2n(CC)c1=O | 70 | –
CCOC(=O)c1c(N2CCOCC2)c2ccc(C)nc2n(CC)c1=O | 22 | –
CCn1c(=O)c(C#N)c(N2CCCC2)c2ccc(C)nc21 | 67 | –
CCOC(=O)c1c(O)c2ccc(C)nc2n(C)c1=O | 51 | –
CCOC(=O)c1c(N)c2cccnc2n(C)c1=O | 21 | –
CCOC(=O)c1c(O)nc2ncccc2c1N | 44 | –
C=CCn1c(=O)c(C(=O)OCC)c(N2CCCC2)c2ccc(C)nc21 | 59 | –
Nc1c(C(=O)O)c(O)nc2ncccc12 | 72 | –
CCOC(=O)c1c(N(C(C)=O)C(C)=O)c2c(C)cc(C)nc2n(CC)c1=O | 76 | –
CCOC(=O)c1c(N2CCN(C)CC2)c2cccnc2n(CC)c1=O | 17 | –
CCOC(=O)c1c(N)c2c(C)cc(C)nc2n(CC)c1=O | 50 | –

SMILES | Control (Rattus norvegicus [1]) [%] | further results
CCOC(=O)c1c(OCC)c2ccc(C)nc2n(CC)c1=O | 46 | –
CCOC(=O)c1c(O)nc2nc(C)cc(C)c2c1N | 89 | –
C=CCn1c(=O)c(C(=O)OCC)c(N)c2cccnc21 | 22 | –
CCOC(=O)c1c(N2CCN(C)CC2)c2ccc(C)nc2n(C)c1=O | 9 | –
CCOC(=O)C(=O)Nc1c(C(=O)OCC)c(=O)n(CC)c2ncccc12 | 28 | –
CCOC(=O)c1c(N)c2cccnc2n(CC)c1=O | 18 | Control (Canis familiaris [8]): 62%; Control (Canis familiaris [2]): 92%; Control (Rattus norvegicus [3]): 55%; Control (Canis familiaris [9]): 97%; Control (Rattus norvegicus [4]): 35%; Control (Rattus norvegicus [10]): 100%; Control (Rattus norvegicus [5]): 17%; Control (Rattus norvegicus [7]): 58%
C=CCn1c(=O)c(C(=O)OCC)c(O)c2ccc(C)nc21 | 73 | –
CCNC(=O)c1c(N)c2cccnc2n(CC)c1=O | 28 | –
CCNc1cc(C)c2c(N)c(C(=O)OCC)c(=O)n(CC)c2n1 | 58 | –
CCOC(=O)c1c(N2CCCC2)c2ccc(C)nc2n(C)c1=O | 32 | –
CCOC(=O)c1c(O)c2ccc(C)nc2n(CC)c1=O | 53 | –
CCCCOC(=O)c1c(N)c2cccnc2n(CC)c1=O | 26 | –
CCOC(=O)c1c(NC(=O)C(F)(F)F)c2cccnc2n(CC)c1=O | 22 | –
CCOC(=O)c1c(N2CC[N+](C)(C)CC2)c2ccc(C)nc2n(CC)c1=O.[Cl-] | 123 | –
CCOC(=O)c1c(N2CCN(C)CC2)c2cccnc2n(C)c1=O | 25 | –
CCOC(=O)c1c(N(CC)CC)c2ccc(C)nc2n(CC)c1=O | 55 | –
CCOC(=O)c1c(N)c2ccc(C)nc2n(CC)c1=O | 33 | –
CCOC(=O)c1c(NCC(O)c2ccccc2)c2ccc(C)nc2n(CC)c1=O (stereo unspecified) | 111 | –
CN/C(=N\CCSCc1nc[nH]c1C)NC#N [CIMETIDINE] | – | Inhibition of gastric acid secretion (% relative to control) (Rattus norvegicus [1]): 80%
